Assay results reported in patent US10034886B2, “GLP-1 receptor modulators” (Celgene International II SÀRL, priority 2014, dated 2018).
pEC50: −log10 of the molar value.

biological target: T1, GLP-1R (Homo sapiens, UniProt P43220); experiment: EC20 GLP-1(9-36) PAM cAMP assay: dose response of compound in the presence of fixed concentration of GLP-1(9-36); format: cell-based; conditions: GLP-1R CRE-bla CHO-K1 cells, compound dose response with fixed concentration of GLP-1(9-36), read-out: EC20 GLP-1(9-36) PAM EC50
T1 construct: host or cells: GLP-1R CRE-bla CHO-K1 cells
Outline: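 GLP-1R CRE-bla CHO-K1 cells treated 30 min at 37 °C with 12-point compound dose response plus fixed EC20 GLP-1(9-36), with IBMX, in HBSS/HEPES/0.1% BSA pH 7.4. Total cAMP measured by luminescent detection against standard curve; EC50 and Emax from non-linear regression.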

T1 sequence (P43220 24-463): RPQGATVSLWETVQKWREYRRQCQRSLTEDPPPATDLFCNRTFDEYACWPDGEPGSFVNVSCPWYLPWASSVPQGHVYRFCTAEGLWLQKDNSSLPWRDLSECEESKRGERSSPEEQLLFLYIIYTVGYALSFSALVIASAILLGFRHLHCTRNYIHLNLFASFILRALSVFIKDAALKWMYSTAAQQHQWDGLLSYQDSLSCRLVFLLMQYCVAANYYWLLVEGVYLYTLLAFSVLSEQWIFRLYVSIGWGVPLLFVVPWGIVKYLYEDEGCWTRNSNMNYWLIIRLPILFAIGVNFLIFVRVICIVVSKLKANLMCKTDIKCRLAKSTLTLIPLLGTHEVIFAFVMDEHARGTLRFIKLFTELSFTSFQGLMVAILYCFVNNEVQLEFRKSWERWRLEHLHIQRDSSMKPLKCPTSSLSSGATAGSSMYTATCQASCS
T1 sequence (P01275 100-127 partner limits assumed): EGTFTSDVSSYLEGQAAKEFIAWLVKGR

| pEC50 | Structure (SMILES) |
| --- | --- |
| 5.60 to 6.10 | CC[C@H]1CC[C@H](c2ccc(-c3cnc(-c4ccc(C[C@H](NC(=O)c5ccc(Cl)cc5)C(=O)O)cc4)nc3)cc2)CC1 [Compound 1386] |
| > 6.10 | Cc1cccc(-c2ccc(-c3cnc(-c4ccc(C[C@H](NC(=O)c5ccc(C(C)(C)C)s5)C(=O)N[C@H](C)C(=O)O)cc4)nc3)cc2)c1 [Compound 1285] |
| > 6.10 | CCC[C@H]1CC[C@H](C2CCN(c3cnc(-c4ccc(C[C@H](NC(=O)c5ccn(C(C)(C)C)c5)C(=O)N5CC(C(=O)O)C5)cc4)nc3)CC2)CC1 [Compound 1532] |
| > 6.10 | COc1ccc(-c2ccc(-c3cnc(-c4ccc(C[C@H](NC(=O)c5ccc(C(C)(C)C)s5)C(=O)N5CC(C(=O)O)C5)cc4)nc3)c(F)c2)cc1 [Compound 1329] |
| > 6.10 | CC[C@H]1CC[C@H](c2ccc(-c3cnc(-c4ccc(C[C@H](NC(=O)c5ccc(C(C)(C)C)s5)C(=O)NCCC(=O)O)cc4)nc3)cc2)CC1 [Compound 1324] |
| 5.60 to 6.10 | CCCCCCCOc1ccc(-c2cnc(-c3ccc(C[C@@H](NC(=O)c4ccc(C(C)(C)C)s4)C(=O)N4CC(C(=O)O)C4)cc3)nc2)cc1 [Compound 1271] |
| 5.60 to 6.10 | CC(C)(C)c1ccc(C(=O)N[C@@H](Cc2ccc(-c3ncc(-c4ccc(C5CCCCC5)cc4)cn3)cc2)C(=O)O)s1 [Compound 1345] |
| > 6.10 | CC(C)c1ccc(-c2ccc(-c3cnc(-c4ccc(C[C@H](NC(=O)c5ccc(C(C)(C)C)s5)C(=O)N5CC(C(=O)O)C5)cc4)nc3)c(F)c2)cc1 [Compound 1220] |
| 5.00 to 5.30 | CCCCC1CCN(C2CCN(c3cnc(-c4ccc(C[C@H](NC(=O)c5ccc(C(C)(C)C)s5)C(=O)N5CC(C(=O)O)C5)cc4)nc3)CC2)C(=O)C1 (some centres unmarked) [Compound 1506] |
| > 6.10 | CC(C)(C)c1ccc(C(=O)N[C@@H](Cc2ccc(-c3ncc(-c4ccc(-c5ccc(OC(F)(F)F)cc5)cc4F)cn3)cc2)C(=O)O)s1 [Compound 1365] |
| 5.60 to 6.10 | CC(C)(C)c1ccc(C(=O)NC(Cc2ccc(-c3ncc(N4CCC(C#N)(c5ccccc5)CC4)cn3)cc2)C(=O)N2CC(C(=O)O)C2)s1 (centres unmarked) [Compound 1423] |
| 5.60 to 6.10 | CC(C)(C)c1ccc(C(=O)N[C@@H](Cc2ccc(-c3ncc(N4CCC(c5ccc(Cl)cc5)CC4)cn3)cc2)C(=O)N2CC(C(=O)O)C2)s1 [Compound 1478] |
| 5.30 to 5.60 | CCCCC[C@H]1CC[C@H](c2ccc(-c3cnc(-c4ccc(C[C@H](NC(=O)c5ccc(C(C)(C)C)s5)C(=O)N[C@H](C)C(=O)O)cc4)nc3)cc2)CC1 [Compound 1310] |
| > 6.10 | CCC[C@H]1CC[C@H](C2CCN(c3cnc(-c4ccc(C[C@H](NC(=O)c5ccc(CC)cc5)C(=O)N5CC(C(=O)O)C5)cc4)nc3)CC2)CC1 [Compound 1529] |
| 5.60 to 6.10 | CCCCc1ccc(-c2ccc(-c3cnc(-c4ccc(C[C@H](NC(=O)c5ccc(C(C)(C)C)s5)C(=O)O)cc4)nc3)c(F)c2)cc1 [Compound 1361] |
| 5.00 to 5.30 | CC(C)(C)c1ccc(C(=O)N[C@@H](Cc2ccc(-c3ncc(N4CCC(c5ccc(CC#N)cc5)CC4)cn3)cc2)C(=O)N2CC(C(=O)O)C2)s1 [Compound 1500] |
| > 6.10 | CCCc1ccc(-c2ccc(-c3cnc(-c4ccc(C[C@H](NC(=O)c5ccc(OC(C)(C)C)cc5)C(=O)N5CC(C(=O)O)C5)cc4)nc3)c(F)c2)cc1 [Compound 1403] |
| 5.60 to 6.10 | CCC(C)(C)c1ccc(C(=O)N[C@@H](Cc2ccc(-c3ncc(-c4ccc([C@H]5CC[C@H](CC)CC5)cc4)cn3)cc2)C(=O)O)cc1 [Compound 1375] |

same assay, conditions: dose response of compound in presence of fixed concentration of GLP-1(9-36), GLP-1R CRE-bla CHO-K1 cells, read-out: EC20 GLP-1(9-36) PAM EC50

| pEC50 | Structure (SMILES) |
| --- | --- |
| 5.60 to 6.10 | CCCCCCCOc1ccc(-c2cnc(-c3ccc(C[C@H](NC(=O)c4ccc(C(C)(C)C)s4)C(=O)NC4(C(=O)O)CC(F)(F)C4)cc3)nc2)cc1 [Compound 876] |
| 5.60 to 6.10 | CCCCCCCOc1ccc(-c2cnc(-c3ccc(C[C@H](NC(=O)c4cc5c(s4)CCC(C)C5)C(=O)N[C@H](C)C(=O)O)cc3)nc2)cc1 (some centres unmarked) [Compound 814] |
| 5.60 to 6.10 | CCCCOc1ccc(-c2cnc(-c3ccc(C[C@H](NC(=O)c4ccc(C(C)(C)C)cc4)C(=O)N[C@H](C)C(=O)O)cc3)nc2)cc1 [Compound 717] |
| > 6.10 | CCCCCCCOc1ccc(-c2cnc(-c3ccc(C[C@H](NC(=O)c4ccc(C(C)(C)C)s4)C(=O)N[C@H](C(=O)O)C4CC4)cc3)nc2)cc1 [Compound 405] |
| 5.60 to 6.10 | CCCCCCCOc1ccc(-c2cnc(-c3ccc(C[C@H](NC(=O)c4ccc(C(C)(C)C)cc4)C(=O)N[C@@H](CC(=O)NCCN)C(=O)O)cc3)nc2)cc1 [Compound 484] |
| 5.30 to 5.60 | COCCc1ccc(OCc2ccc(-c3cnc(-c4ccc(C[C@H](NC(=O)c5ccc(C(C)(C)C)s5)C(=O)N[C@H](C)C(=O)O)cc4)nc3)cc2)cc1 [Compound 1053] |
| 5.30 to 5.60 | C[C@@H](NC(=O)[C@H](Cc1ccc(-c2ncc(-c3ccc(-c4ccccc4)cc3)cn2)cc1)NC(=O)c1ccc(C(C)(C)C)s1)C(=O)O [Compound 741] |
| 5.60 to 6.10 | CCCCCCCOc1ccc(-c2cnc(-c3ccc(C[C@H](NC(=O)c4ccc(C(C)(C)C)cc4)C(=O)N[C@@H](CC(=O)NCC(=O)O)C(=O)O)cc3)nc2)cc1 [Compound 480] |
| > 6.10 | CCCCCCCOc1ccc(-c2cnc(-c3ccc(C[C@H](NC(=O)c4ccc(C(C)(C)C)s4)C(=O)NCC(=O)NCCC(=O)O)cc3)nc2)cc1 [Compound 487] |
| 5.60 to 6.10 | CCCCCCCOc1ccc(-c2cnc(-c3ccc(C[C@H](NC(=O)c4cnn(C(C)(C)C)c4)C(=O)N4CCC[C@H]4C(=O)O)cc3)nc2)cc1 [Compound 1068] |
| > 6.10 | CCCCCCCOc1ccc(-c2cnc(-c3ccc(C[C@H](NC(=O)c4ccc(C(C)(C)C)s4)C(=O)N4C[C@H](O)C[C@H]4C(=O)O)cc3)nc2)cc1 [Compound 612] |
| 5.60 to 6.10 | CCCCCCCOc1ccc(-c2cnc(-c3ccc(C[C@H](NC(=O)c4ccc(O)c(F)c4)C(=O)N4CC(C(=O)O)C4)cc3)nc2)cc1 [Compound 1104] |
| 5.60 to 6.10 | CCCCCCCOc1cc(C)c(-c2cnc(-c3ccc(C[C@H](NC(=O)c4ccc(C(C)(C)C)s4)C(=O)N[C@H](C)C(=O)O)cc3)nc2)c(C)c1 [Compound 791] |
| 5.60 to 6.10 | CC(C)CCCCOc1ccc(-c2cnc(-c3ccc(C[C@H](NC(=O)c4ccc(C(C)(C)C)cc4)C(=O)NCCC(=O)O)cc3)nc2)cc1 [Compound 472, (S)-3-(2-(4-(tert-butyl)benzamido)-3-(4-(5-(4-((5-methylhexyl)oxy)phenyl)-pyrimidin-2-yl)phenyl)propanamido)propanoic acid] |
| > 6.10 | CCCCCCCOc1ccc(-c2cnc(-c3ccc(C[C@H](NC(=O)c4ccc(C(C)(C)C)s4)C(=O)N4CCC4C(=O)O)cc3)nc2)cc1 (some centres unmarked) [Compound 599] |
| 5.30 to 5.60 | CCCCCCCOc1ccc(-c2cnc(-c3ccc(C[C@H](NC(=O)c4ccc(CCCC)cc4)C(=O)N4CC[C@H](C(=O)O)C4)cc3)nc2)cc1 [Compound 850] |

| pEC50 | Structure (SMILES) |
| --- | --- |
| 5.00 to 5.30 | CCCCCCCOc1ccc2nc(-c3ccc(C[C@H](NC(=O)c4ccc(C(C)(C)C)cc4)C(=O)N4CC[C@H](C(=O)O)C4)cc3)ccc2c1 [Compound 807] |
| 5.60 to 6.10 | CCCCOc1ccc(-c2cnc(-c3ccc(C[C@H](NC(=O)c4ccc(C(C)(C)C)cc4)C(=O)NCCC(=O)O)cc3)nc2)cc1 [Compound 709] |
| 5.60 to 6.10 | CCCCCCOc1cccc(-c2noc(-c3cnc(-c4ccc(C[C@H](NC(=O)c5ccc(C(C)(C)C)cc5)C(=O)NCCC(=O)O)cc4)nc3)n2)c1 [Compound 760] |
| 5.00 to 5.30 | CCCCCCCOc1ccc(-c2cnc(-c3ccc(C[C@H](NC(=O)[C@H]4CC[C@H](C(C)(C)C)CC4)C(=O)N[C@H](C)C(=O)O)cc3)nc2)cc1 [Compound 833] |
| > 6.10 | C[C@@H](NC(=O)[C@H](Cc1ccc(-c2ncc(-c3ccc(-c4ccc(C(F)(F)F)cc4F)cc3)cn2)cc1)NC(=O)c1ccc(C(C)(C)C)s1)C(=O)O [Compound 1147] |
| > 6.10 | CCCCCCCOc1ccc(-c2cnc(-c3ccc(C[C@H](NC(=O)c4ccc(C(C)(C)C)cc4)C(=O)NC(C(=O)O)c4cccc(OC)c4)cc3)nc2)cc1 (some centres unmarked) [Compound 566] |
| 5.00 to 5.30 | CC(C)(C)c1ccc(C(=O)N[C@@H](Cc2ccc(-c3ncc(-c4ccc(OC5CCCC5)cc4)cn3)cc2)C(=O)NC(C(=O)O)C(O)c2ccccc2)s1 (some centres unmarked) [Compound 929] |
| 5.00 to 5.30 | CCCCCCCOc1ccc(-c2cnc(-c3ccc(C[C@H](NC(=O)c4ccc(C(C)(C)C)s4)C(=O)NC(C(=O)O)C(O)c4ccc(Cl)c(Cl)c4)cc3)nc2)cc1 (some centres unmarked) [Compound 905] |
| 5.00 to 5.30 | C[C@@H](NC(=O)[C@H](Cc1ccc(-c2ncc(/C=C\CCCc3ccccc3)cn2)cc1)NC(=O)c1ccc(C(C)(C)C)s1)C(=O)O [Compound 1051] |
| > 6.10 | CC(C)(C)c1ccc(C(=O)N[C@@H](Cc2ccc(-c3ncc(-c4ccc([C@H]5CC[C@@H](C)CC5)cc4)cn3)cc2)C(=O)N2CC(C(=O)O)C2)s1 [Compound 1177] |
| 5.00 to 5.30 | CCCCCCCOc1ccc(-c2cnc(-c3ccc(C[C@H](NC(=O)c4ccc(C(C)(C)C)cc4)C(=O)NCCC(=O)O)cc3)nc2)cc1C#N [Compound 700] |
| > 6.10 | CCCCCCCOc1ccc(-c2cnc(-c3ccc(C[C@H](NC(=O)c4ccc(C(C)(C)C)s4)C(=O)N4CC(C(=O)NS(C)(=O)=O)C4)cc3)nc2)cc1 [Compound 650] |
| > 6.10 | CCCCCCCOc1ccc(-c2cnc(-c3ccc(C[C@H](NC(=O)c4ccc(C(C)(C)C)cc4)C(=O)NC(CC(=O)O)C4CCOCC4)cc3)nc2)cc1 (some centres unmarked) [Compound 551] |
| 5.00 to 5.30 | CCCCCCCOc1ccc(-c2cnc(-c3ccc(C[C@H](NC(=O)c4ccc(C(C)(C)C)s4)C(=O)NC(C(=O)O)c4ccc(C(F)(F)F)cc4)cc3)nc2)cc1 (some centres unmarked) [Compound 618] |
| 5.30 to 5.60 | CCCCCCCOc1ccc(-c2cnc(-c3ccc(C[C@H](NC(=O)c4ccc(C(C)(C)C)cc4)C(=O)N[C@@H](CC(=O)Nc4nnn[nH]4)C(=O)O)cc3)nc2)cc1 [Compound 510] |
| 5.60 to 6.10 | CCCCCCCOc1ccc(-c2cnc(-c3ccc(C[C@H](NC(=O)c4ccc(C(C)(C)C)s4)C(=O)N[C@H](C(=O)O)[C@H](C)CC)cc3)nc2)cc1 [Compound 657] |
